From paper PMC5632672, “Generation of Persister Cells of Pseudomonas aeruginosa and Staphylococcus aureus by Chemical Treatment and Evaluation of Their Susceptibility to Membrane-Targeting Agents” (Frontiers in Microbiology, 2017)
≈ marks a conversion by molar mass, not a printed value. Like-named read-outs stand apart in the source and are kept apart here. Positions of bridges follow the written chain, without caps; N, C: chain ends. Non-standard residues stand in square brackets, D forms with d. Residues, ends and D or L forms follow the SMILES beside them. *: point of attachment. X1 = CC[C@H](C)CCCCC(=O)*; Dab = NCC[C@H](N)C(=O)O

Legend:
[1] = system: Staphylococcus aureus ATCC 33591; assay: MIC and MBC by standard microdilution after revival of CCCP-induced persisters
[2] = system: Pseudomonas aeruginosa ATCC 27853
[3] = system: Pseudomonas aeruginosa ATCC 27853; assay: MIC and MBC by standard microdilution after revival of CCCP-induced persisters
[4] = system: Pseudomonas aeruginosa ATCC 27853; assay: Induction of persistence with CCCP, survival to antibiotic treatment; conditions: P. aeruginosa
[5] = system: Staphylococcus aureus ATCC 33591; assay: as above; conditions: S. aureus
[6] = system: Staphylococcus aureus ATCC 33591
[7] = system: Pseudomonas aeruginosa ATCC 27853; assay: Flow cytometry, oxidoreductase activity with RedoxSensor Green; format: cell-based; conditions: P. aeruginosa, 3-h exposure to CCCP 200 μg/mL, Figure 4A
Protocol: (§1) The metabolic activity of CCCP-induced PCs of P. aeruginosa and S. aureus was also evaluated by determining the oxidoreductase activity through flow cytometry. […] Then, bacterial suspensions were stained with the RedoxSensor^TM Green reagent (RSG) (BacLight^TM RedoxSensor^TM Green Vitality Kit, Thermo Fisher Scientific, Waltham, MA, United States) according to the manufacturer’s instructions. Briefly, 1 mL of the bacterial suspension was incubated with 1 μL (P. aeruginosa) or 0.1 μL (S. aureus) of 1 mM RSG for 10 min at 37°C in the dark. Stained samples were analyzed with a BD Accuri C6 flow cytometer (BD Biosciences, Mountain View, CA, United States) equipped with a 488 nm laser and a 533/30 nm optical filter. Data were collected and analyzed with BD Accuri C6 software (BD Biosciences), and results were plotted as cell counts versus fluorescence intensity.

[8] = system: Staphylococcus aureus ATCC 33591; assay: as above; format: cell-based; conditions: S. aureus, 3-h exposure to CCCP 400 μg/mL, Figure 4B
Protocol: as §1

[9] = system: Staphylococcus aureus ATCC 33591; format: cell-based; conditions: S. aureus, CCCP 400 μg/mL 3 h, washed, fresh LB
[10] = system: Pseudomonas aeruginosa ATCC 27853; assay: Revival assay of CCCP-induced persisters; format: cell-based; conditions: P. aeruginosa, CCCP 200 μg/mL 3 h, washed, fresh LB
[11] = system: Staphylococcus aureus ATCC 33591; assay: Effect of CCCP on cell viability, CFU counting; conditions: S. aureus stationary-phase cultures, CCCP at concentrations up to 400 μg/mL, 3 h, 37°C, Figure 1
Protocol: (§2) Bacteria were grown in LB medium for approximately 18 h at 37°C to obtain stationary-phase cells, as assessed by monitoring bacterial growth by optical density. A volume of 1 mL of the overnight cultures was incubated with 10 μL of CCCP at different concentrations (from 25 to 400 μg/mL) for 3 h at 37°C with shaking. Bacterial cultures exposed to DMSO were used as cell viability control. Following the incubation, bacteria were washed twice in sodium-phosphate buffer (10 mM SPB, pH 7.4) by centrifugation (1700 × g for 10 min), subsequently diluted 10-fold in LB and plated on TSA to determine the number of CFU.

[12] = system: Staphylococcus aureus ATCC 33591; assay: Isothermal microcalorimetry, bacterial heat production; conditions: S. aureus stationary-phase culture incubated with CCCP 400 μg/mL, recorded for 24 h, Figure 3
Protocol: The metabolic profile of CCCP-induced persisters of P. aeruginosa and S. aureus was evaluated by real-time monitoring of bacterial heat production through isothermal microcalorimetry. […] Ampoules were inserted into the calorimeter, placed in the thermal equilibration position for 15 min and then lowered into the measuring position. After 45 min of signal stabilization, measurements of the heat flow were initiated and recorded for 24 h. Data analysis was performed with the manufacturer software (TAM Assistant) and GraphPad Prism (GraphPad Software, La Jolla, CA, United States), and results were plotted as heat flow (in microwatts) or total heat (in joules) versus time.

[13] = system: Pseudomonas aeruginosa ATCC 27853; assay: Effect of CCCP on cell viability, CFU counting; conditions: P. aeruginosa stationary-phase cultures, CCCP at concentrations up to 200 μg/mL, 3 h, 37°C, Figure 1
Protocol: as §2

[14] = system: Pseudomonas aeruginosa ATCC 27853; assay: Isothermal microcalorimetry, bacterial heat production; format: cell-based; conditions: P. aeruginosa stationary-phase culture incubated with CCCP 200 μg/mL, recorded for 24 h, Figure 3
[15] = ATCC33591, 24 h, read-out: MIC, CCCP-untreated
[16] = ATCC33591, read-out: MBC, CCCP-pretreated
[17] = ATCC33591, read-out: MBC, CCCP-untreated
[18] = ATCC33591, read-out: MIC, CCCP-pretreated
[19] = ATCC27853, read-out: MBC, CCCP-pretreated
[20] = ATCC27853, read-out: MBC, CCCP-untreated
[21] = CCCP 400 μg/mL for 3 h, then gentamicin 10 μg/mL 3 h, Figure 2F
[22] = CCCP 200 μg/mL for 3 h, then meropenem 10 μg/mL 3 h, Figure 2C

With CNC(C)C1CCC(N)C(OC2C(N)CC(N)C(OC3OCC(C)(O)C(NC)C3O)C2O)O1 (centres unmarked) [Gentamicin] the MIC [1, 15] was 20 µg/mL (≈ 41.9 µM), the MBC [1, 16] was 40 µg/mL (≈ 83.8 µM) and the MBC [1, 17] was 40 µg/mL (≈ 83.8 µM). It also gave an MIC [1, 18] of 20 µg/mL (≈ 41.9 µM).

In the case of CC[C@H](C)CCCCC(=O)N[C@@H](CCN)C(=O)N[C@H](C(=O)N[C@@H](CCN)C(=O)N[C@H]1CCNC(=O)[C@H]([C@@H](C)O)NC(=O)[C@H](CCN)NC(=O)[C@H](CCN)NC(=O)[C@H](CC(C)C)NC(=O)[C@@H](CC(C)C)NC(=O)[C@H](CCN)NC1=O)[C@@H](C)O [Colistin, colistin] (X1-[Dab]T[Dab][Dab][Dab][dL]L[Dab][Dab]T; lactam 4-C (inferred); N-terminus assumed), the “concentration eradicating persister-enriched cultures to the limit of detection (complete killing)” value [2] is reported as 3.5 µM, the “MBC, P. aeruginosa CCCP-pretreated” value ([2]; ATCC 27853, 3 h) is reported as 3.5 µM (≈ 4.09 µg/mL) and the “MBC, P. aeruginosa CCCP-untreated” value ([2]; ATCC 27853, 3 h) is reported as 1.75 µM (≈ 2.05 µg/mL). The “fold increase in MBC against CCCP-pretreated vs CCCP-untreated bacteria” value ([2]; P. aeruginosa) was 2 fold.

C[C@@H](O)[C@H]1C(=O)N2C(C(=O)O)=C(S[C@@H]3CN[C@H](C(=O)N(C)C)C3)[C@H](C)[C@H]12 [Meropenem, meropenem] gave an MBC [3, 19] of 10 µg/mL (≈ 26.1 µM) and an MBC [3, 20] of 10 µg/mL (≈ 26.1 µM).

In the case of O=C(O)c1cn(C2CC2)c2cc(N3CCNCC3)c(F)cc2c1=O [Ciprofloxacin], the “percentage of stationary-phase culture surviving antibiotic exposure, no CCCP pretreatment” value ([4]; ciprofloxacin 5 μg/mL, 3 h, SPB/LB, Figure 2A) is reported as “less than 0.01%”, the MIC ([3]; ATCC27853, 24 h, read-out: MIC, CCCP-untreated) is reported as 0.5 µg/mL (≈ 1.51 µM) and the MBC [3, 19] is reported as 1 µg/mL (≈ 3.02 µM). For the same compound, the MBC [3, 20] was 1 µg/mL (≈ 3.02 µM) and the MIC ([3]; ATCC27853, read-out: MIC, CCCP-pretreated) was 0.5 µg/mL (≈ 1.51 µM).

With C[C@H]1COc2c(N3CCN(C)CC3)c(F)cc3c(=O)c(C(=O)O)cn1c23 [Levofloxacin, levofloxacin] the “percentage of initial inoculum tolerating antibiotic treatment, no CCCP pretreatment” value ([5]; levofloxacin 2.5 μg/mL, 3 h, SPB/LB, Figure 2D) was “approximately 0.5%”, the MIC [1, 15] was 0.5 µg/mL (≈ 1.38 µM) and the MBC [1, 16] was 0.5 µg/mL (≈ 1.38 µM). It also gave an MBC [1, 17] of 0.5 µg/mL (≈ 1.38 µM) and an MIC [1, 18] of 0.5 µg/mL (≈ 1.38 µM).

[WKKIRVRLSA]2-K-8Aoc-NH2 [Den-SB056] was tested, and the “MBC, P. aeruginosa CCCP-pretreated” value ([2]; persister-enriched cultures (CCCP 200 μg/mL, 3 h), SPB/LB, 1 × 10^6 CFU/mL, 3 h, 37°C, CFU counting) was 1.75 µM, the “MBC, P. aeruginosa CCCP-untreated” value ([2]; stationary-phase cultures, CCCP-untreated, SPB/LB, 1 × 10^6 CFU/mL, 3 h, 37°C, CFU counting) was 0.87 µM and the “MBC, S. aureus CCCP-pretreated” value ([6]; persister-enriched cultures (CCCP 400 μg/mL, 3 h), SPB/LB (daptomycin: deionized water with 1% LB and 75 μg/mL CaCl2), 1 × 10^6 CFU/mL, 3 h, 37°C, CFU counting) was 1.75 µM. For the same compound, the “MBC, S. aureus CCCP-untreated” value ([6]; stationary-phase cultures, CCCP-untreated, SPB/LB (daptomycin: deionized water with 1% LB and 75 μg/mL CaCl2), 1 × 10^6 CFU/mL, 3 h, 37°C, CFU counting) was 1.75 µM.

In the case of CCCCCCCCCC(=O)N[C@@H](Cc1c[nH]c2ccccc12)C(=O)N[C@H](CC(N)=O)C(=O)N[C@@H](CC(=O)O)C(=O)N[C@@H]1C(=O)NCC(=O)N[C@@H](CCCN)C(=O)N[C@@H](CC(=O)O)C(=O)N[C@H](C)C(=O)N[C@@H](CC(=O)O)C(=O)NCC(=O)N[C@H](CO)C(=O)N[C@@H]([C@H](C)CC(=O)O)C(=O)N[C@@H](CC(=O)c2ccccc2N)C(=O)O[C@@H]1C [Daptomycin], the “MBC, S. aureus CCCP-pretreated” value ([6]; ATCC 33591, 3 h) is reported as 112 µM (≈ 182 µg/mL), the “MBC, S. aureus CCCP-untreated” value ([6]; ATCC 33591, 3 h) is reported as 7 µM (≈ 11.3 µg/mL) and the “fold higher concentration required to kill CCCP-induced persisters than untreated bacteria (MBC)” value ([6]; S. aureus) is reported as 16 fold. For the same compound, the “bactericidal concentration against persisters relative to those of the tested AMPs” value ([6]; S. aureus CCCP-pretreated, Figure 6B) was 32 to 64 fold.

For N#CC(C#N)=NNc1cccc(Cl)c1 [CCCP, Carbonyl cyanide m-chlorophenylhydrazone], the “reduction in RSG fluorescence vs untreated control” value [7] was “approximately three”, the “reduction in RSG fluorescence vs untreated control” value [8] was “approximately three” and the “fold increase in survival to gentamicin” value [5, 21] was “approximately 500 times”. The “percentage of cells becoming persisters (surviving gentamicin) after CCCP pretreatment” value [5, 21] was 20%, the “percentage of initial population surviving levofloxacin exposure after CCCP pretreatment” value ([5]; CCCP 400 μg/mL for 3 h, then levofloxacin 2.5 μg/mL 3 h, Figure 2D) was “approximately 60%” and the “fold increase in the number of persister-like cells vs untreated control” value ([4]; CCCP 200 μg/mL for 3 h, then ciprofloxacin 5 μg/mL 3 h, Figure 2A) was 5000 fold. The “fold increase in the percentage of bacteria tolerant to meropenem” value [4, 22] was 200 fold, the “percentage of starting bacterial population tolerant to meropenem after CCCP pretreatment” value [4, 22] was 35% and the “lag phase before resuming replication at a normal rate, optical density” value ([9]; OD600, Figure 5D) was “approximately 1 h”. For the same compound, the “delay in heat production after CCCP removal (time of maximum heat production)” value ([9]; microcalorimetry, Figure 5C) was 1 h, the “lag phase before resuming replication at a normal rate, optical density” value ([10]; OD600, Figure 5B) was “approximately 1 h” and the “time lag in heat production after CCCP removal (time of maximum heat production)” value ([10]; microcalorimetry, Figure 5A) was 1.5 h. The “effect on cell viability” value [11] was “only a minor effect on cell viability”, the basal heat production [12] was < 5 μWh and the “effect on cell viability” value [13] was “did not exert a significant killing effect”. The basal heat production [14] was < 5 μWh.
